Assay results reported in patent US20250249110A1, “ANTIMICROBIAL PEPTIDE DERIVATIVE AND USE THEREOF” (SICHUAN UNIVERSITY, priority 2016, published 2025).
Where no end group is shown, it is not given here.

Experiments:
[1] = tested on: Staphylococcus aureus 33591; experiment: Intra-abdominally infected mouse model; format: in vivo; settings: intravenous administration; DP7-C 1 mg/kg, VAN 20 mg/kg; vs NS group, p<0.01
Experimental: The anti-infection activity of DP7-C is determined by the intra-abdominally infected models. […]
The experimental steps are as follows: • (1) Activate Staphylococcus aureus 33591 with MHB the day before the experiment, wash the activated strains twice with normal saline on the day of the experiment, and determine the concentration of bacterial liquid for later use. • (2) To establish an abdominally infected mouse model, intraperitoneally inject the bacterial solution of 1.5×10^8 cfu/0.5 mL into each mouse. • (3) Intravenously inject the drug by group after one hour of infection, 0.1 mL/mouse. • (4) 24 h later, intraperitoneally inject 5 mL of normal saline into the mouse, gently massage the abdomen, kill the mouse and disinfect with 75% alcohol. After 5 min, scissor the abdominal cavity epithelium, make a small opening in the abdominal cavity, draw ascites as much as possible from the opening with a 1 ml syringe, and then transfer to a sterile EP tube for mixing. • (5) Dilute with normal saline at a dilution of, for example, 10×, 100×, 1000× and 10000×; take three bacterial solutions with suitable concentrations, 20 μL each, coat the MHA plate and incubate in a bacteria incubator overnight. • (6) Select a plate with 20-200 colonies and convert and calculate the amount of bacteria per milliliter in 5 milliliters of ascites.

[2] = tested on: red blood cells; experiment: Hemolysis test in vitro; format: cell-based, human (healthy volunteers); settings: FIG. 5B
Experimental: In the hemolysis test, DP7 and DP7-C at the same concentration were detected for the hemolysis of red blood cells. • 1. Take the blood of healthy volunteers and put into an anticoagulant tube and gently mix. • 2. Take out the anticoagulant, add isometric physiological saline, mix slowly and evenly, centrifuge at 400×g for 10 min, and discard the supernatant. • 3. Slowly mix the red blood cells and wash with PBS, centrifuge at 400×g for 10 min, discard the supernatant, and wash the cell precipitate with PBS for three times. • 4. Dilute with PBS to obtain 20% (v/v) red blood cell solution, which can be used immediately or stored at 4° C. for about 2 weeks (without hemolysis). • 5. Dilute the drug into a series of concentration gradients with PBS, add 100 μL of drug into a 96-well plate, take 100 μL of 2% Twain 20 as the positive control, add 100 μL of PBS to the negative control. Repeat the process 3 times for each concentration of drug. • 6. Dilute 20% (v/v) of red blood cell solution with PBS according to the volume ratio of 1:20, mix evenly and add to a 96-well plate, with the drug concentration of 100, 200, 400, 600, 800, 1000, 1200, 1600 μg/mL respectively, and incubate at 37° C. for 1 h. • 7. Incubate the mixture of drugs and red blood cells, centrifuge at 900×g for 10 min, add 160 μL of the supernatant to a new 96-well plate, and read the absorbance value at OD 450 nm. • 8. According to the absorbance value of A450, calculate the percentage of hemolysis corresponding to each concentration of drugs.
The calculation formula of the percentage of hemolysis is: […]

[3] = tested on: staphylococcus aureus; settings: background statement; cited from earlier work
[4] = tested on: red blood cells; settings: cited from earlier work

Compound | average colony forming unit (CFU) of Staphylococcus aureus [1] | appearance of hemolysis test [2] | therapeutic effect in vivo [3] | lethality ([4]; high concentration, intravenous injection) | hemolysis of red blood cells ([4]; mouse, in vivo, iv)
CN[C@H](CC(C)C)C(=O)N[C@H]1C(=O)N[C@@H](CC(N)=O)C(=O)N[C@H]2C(=O)N[C@H]3C(=O)N[C@H](C(=O)N[C@H](C(=O)O)c4cc(O)cc(O)c4-c4cc3ccc4O)[C@H](O)c3ccc(c(Cl)c3)Oc3cc2cc(c3O[C@@H]2O[C@H](CO)[C@@H](O)[C@H](O)[C@H]2O[C@H]2C[C@](C)(N)[C@H](O)[C@H](C)O2)Oc2ccc(cc2Cl)[C@H]1O [VAN, Vancomycin, reference compound] | significantly lower than those in NS group | – | – | – | –
VQWRIRVAVIRK-NH2 [DP7, VQWRIRVAVIRK-NH2] | – | red blood cells are lysed | very good therapeutic effect | kill mice | cause hemolysis of red blood cells
